Measured values reported in a melting point compilation (Tetko et al.; mined from patent text by program, amines drawn as free bases though some values may be those of a salt).

melting point [°C] | Structure (SMILES)
231 to 233 | Cc1cn([C@H]2CC[C@H](CC(=O)O)C[C@@H]2NC(=O)OC(C)(C)C)c(=O)[nH]c1=O
162 to 163 | COc1cc(COc2nn(Cc3ccccc3)cc2C(=O)O)ccc1OCc1nc(-c2ccccc2)oc1C
199 to 201 | Cc1cc2c(cc1C)C1(CO2)C(=O)N(CC2CCOCC2)c2ccccc21 (centres undefined)
138 to 139 | CCOc1nn(Cc2ccnc(OCc3nc(-c4ccco4)oc3C)c2)cc1CCC(=O)O
240 to 242 | COc1c(N2CCC(N)C(C)C2)c(F)cc2c(=O)c(C(=O)O)cn(C3CC3)c12 (centres undefined)
144 | COc1ccccc1N(CC(=O)OC(C)(C)C)C(=O)CN1C(=O)c2ccccc2C1=O
54.5 to 55 | COC(=O)c1cc(Cl)ccc1OCc1ccccc1
129 to 130 | Nc1nn(-c2ccccc2)cc1C=O
116 to 118 | CCC1Cc2cc3c(cc2C(c2ccc([N+](=O)[O-])cc2)O1)OCO3 (centres undefined)
150 to 151 | COc1ccc(C(=O)C2=C(C)C(=O)C3C=CC=CC3C2=O)cc1 (centres undefined)
114 to 116 | CC(C)=CCOc1ccc2c(C)cc(=O)oc2c1C(=O)C=Cc1ccccc1
103 to 105 | CCCCOc1cc(CCC(=O)O)ccc1-c1cccc(CN(C)C(=O)c2ccccc2)c1
145 | CCCCc1cc(OCc2ccc(-c3ccccc3C(=O)O)cc2)c2ccccc2n1
204 to 206 | COc1nc(Br)cnc1NS(=O)(=O)c1ccccc1-c1ccc(C)cc1
99 to 101 | COc1cccc(-c2nn(C)c3ccsc23)c1
106 to 107 | C=C(C)CN1C(=O)c2ccccc2Oc2ncccc21

melting point [°C] | Structure (SMILES)
207 | Cc1nc2nc(-c3ccc(C4(N)CCC4)cc3)c(-c3ccccc3)cn2n1
82 | O=C(NN1CCCCCC1)C(CS)Cc1ccccc1 (centres undefined)
173 to 174 | CSC1=C([N+](=O)[O-])CN(Cc2ccccc2)CN1
224 to 225 | Cc1sc2c(Br)c3ccccc3c(-c3cc(Br)c(OC(C)C(=O)O)c(Br)c3)c2c1C (centres undefined)
248 to 250 | CC(=O)C1CCC2C3CCC4CC(O)C(N5CCOC(c6ccccc6)(c6ccccc6)C5)CC4(C)C3C(=O)CC12C (centres undefined)
144 to 147 | CCC(CC)(c1ccc(F)cc1F)c1c[nH]c2c(NS(C)(=O)=O)cccc12
113 to 115 | N#Cc1cnn2c1N(C(=O)CN1CCN(C(=O)OCc3ccccc3)CC1)CC=C2c1cccc(C(F)(F)F)c1
260 to 262 | O=C1CCC(N2Cc3cc(CNC(=O)c4ccc(Cl)c(Cl)c4)ccc3C2=O)C(=O)N1 (centres undefined)
131 to 132 | COc1ccc(-c2cc(-c3ccccc3)[nH]c2C(=O)NCc2ccc(C(=O)NCCS)cc2)cc1
95 to 105 | O=C(CN1CCN(C(=O)c2cc(C(F)(F)F)cc(C(F)(F)F)c2)[C@H](Cc2c[nH]c3ccccc23)C1)c1ccc(F)cc1
126 to 128 | CCC(CC)CNC(=O)c1ccc2cccc(Cc3ccc(C(=O)NS(=O)(=O)c4ccccc4C)cc3OC)c2c1
110 to 122 | O=C1NCCN1Cc1ccc(OCc2ccccc2)cc1
160 to 163 | O=C(Nc1cccc(Cl)c1)C1C(=O)Sc2ccc(Cl)cc21 (centres undefined)
162 to 164 | C=CCOc1ccccc1-c1ncc(C#N)c(=O)[nH]1
83 | CCN(CC)CC(C)N1c2ccccc2Sc2ccc(C#N)cc21 (centres undefined)
208 | Cn1cncc1C(O)(c1ccc(C=O)cc1)c1ccc2c(c1)c(-c1cccc(Cl)c1)cc(=O)n2C (centres undefined)

Continued, compound first:

Structure (SMILES) | melting point [°C]
O=S(=O)(CCl)c1ccc(-n2cnnn2)cc1 | 168 to 172
CC(C)(C)c1ccc(S(=O)(=O)Nc2nc(-c3ncccn3)nc(OCCOc3ncc(Br)cn3)c2-c2cccs2)cc1 | 222 to 224
O=C(COc1ccccc1C1NC(C(=O)O)CS1)NCCO[N+](=O)[O-] (centres undefined) | 99 to 103
COCCOc1cc(/C=C/C(=O)NS(=O)(=O)CCC(C)C)n(Cc2ccc(Cl)cc2Cl)n1 | 110 to 114
O=C(O)c1cc(F)c(N2CCCC2)nc1NC1CC1 | 64 to 66
CC(=O)O[C@H](CCc1ccc([N+](=O)[O-])cc1)C(=O)O | 108 to 109
COc1ccc(-c2cn([C@H]3CN4CCC3CC4)nn2)cn1 | 155
CC(C)c1cc(C(C)C)c(C=CCC(=O)O)c(C(C)C)c1 | 201 to 203
CC(C)Oc1ccc(/C=C(\NC(=O)c2ccc(OCCCCC3CC3)cc2)C(=O)NCCO)cc1 | 53 to 55
COc1ncc(Br)c2nc(S(=O)(=O)Nc3c(Cl)cccc3Cl)nn12 | 196 to 198
CC(C)(C(=O)O)c1cn2nc(CCCN3CCN(C(c4ccccc4)c4ccccc4)CC3)ccc2n1 | 176 to 178
C=CCCCCCCCCC(=O)N1CC[C@H]2[C@H]1[C@@H](CCC)C(=O)N2S(C)(=O)=O (relative stereo) | 62 to 64.6
CCOP(=O)(OCC)SCc1ccc(-c2nc(SC)c3cc(Br)ccc3n2)cc1 | 126 to 127
CCOCCOC(=O)c1cc2cc(Br)ccc2nn1 | 128 to 130
Cc1ccc(NC(=O)Cc2ccc(OC(C)(C)C(=O)O)cc2)cc1 | 164
CCCCCCCCCCCCCCCCCCOC(=O)c1ccc(N)cc1 | 60 to 70
COC(=O)c1ccc2c(c1)Sc1cc(F)ccc1C=C2 | 132 to 135
Cc1ccncc1C(N)=S | 104 to 106
Cc1ccc(S(=O)(=O)Nc2onc(C)c2Br)cc1 | 169 to 172

Structure (SMILES) | melting point [°C]
CC(C)(C)OC(=O)N1C[C@@H](O)[C@H](n2ccnn2)C1 (relative stereo) | 91 to 93
CCCCn1nnc(-c2cccc(-c3ccnc4c(C(=O)c5cccs5)cnn34)c2)n1 | 90
CS(=O)(=O)Nc1cccc(OCc2c[nH]cn2)c1 | 178 to 180
O=C(/C=C/c1cc(O)c(O)c([N+](=O)[O-])c1)CCCCC(=O)Nc1ccc(C(F)(F)F)cc1 | 194 to 197
CCn1c(C)nc2cc(C#N)ccc21 | 162
CC(C)c1csc(/C=C/c2cccc(N)c2)n1 | 62 to 63
Oc1cccc(C#Cc2ccc(C(F)(F)F)cc2)c1 | 131 to 132
CCCc1ccnc2c(=O)[nH]c(-c3cc(S(=O)(=O)NCCN4CCNC4=O)ccc3OCC)nc12 | 221 to 222
Cn1c(C(F)(F)F)cc(=O)n(-c2ccc(Cl)c(C=CC#N)c2)c1=O | 263 to 265
CNc1nccc(-c2c(-c3ccc(F)cc3)ncn2C2CC(C)(C)NC(C)(C)C2)n1 | 221 to 222
C[C@@H](n1cnc2cc(C=NNS(N)(=O)=O)ccc2c1=O)[C@](O)(Cn1cncn1)c1ccc(F)cc1F | 202 to 206
Fc1ccccc1C(Cl)(c1ccccc1)c1ccccc1 | 134 to 135
CC(C)(C)C1CCC2(CC1)CC(=NO)CO2 (centres undefined) | 118
CC(=O)c1cccc(C(=O)Nc2c[nH]nc2C(=O)NCCC#N)c1 | 205 to 208
COC(=O)C1C(NC(C)=O)CC(=O)OC1C (centres undefined) | 135 to 136
O=C(NNS(=O)(=O)c1ccccc1)c1cnc2ccccc2c1 | 249 to 250
CC(=O)N[C@@H]1CCN(S(=O)(=O)c2ccc(Cl)c(CBr)c2Cl)C1 | 222
CCC(=O)N[C@@H](C)C(=O)N1CCC[C@H]1C(=O)NC(C)C | 173 to 175
